{"source": "paper PMC6178849", "about": "“Activation of Glutathione Peroxidase 4 as a Novel Anti-inflammatory Strategy” (Frontiers in Pharmacology, 2018)", "molecular_target": "T1, glutathione peroxidase 4 (hGPX4-C) (Homo sapiens, UniProt P36969, U73C)", "T1 construct": "gene GPX4; human cytosolic GPX4 (c-GPX4), his-tagged, expressed in E. coli M15", "T1 sequence (P36969 other isoform, or with tags, fused parts or gaps U73C)": "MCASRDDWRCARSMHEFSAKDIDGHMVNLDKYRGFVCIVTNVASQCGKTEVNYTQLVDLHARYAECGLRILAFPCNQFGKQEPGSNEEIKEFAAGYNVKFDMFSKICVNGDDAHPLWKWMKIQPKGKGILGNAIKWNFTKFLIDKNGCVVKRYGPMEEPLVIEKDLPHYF", "assay": "activation of purified GPX4 in a glutathione reductase/NADPH coupled assay; Tm shift about […]°C; D23A mutant loses activation; CETSA in HEK293T cells", "assay_type": "biochemical", "conditions": "read-out: % (maximum activation)", "data": [{"compound": "NC1=NC2(O)C(=O)c3ccccc3C2(O)N1", "note": "(stereo not shown) [compound 102, PKUMDL-LC-102]", "values": [{"measurement": "Emax", "result": 236, "unit": "%"}]}]}
